{"source": "paper PMC8528301", "about": "(PLoS ONE, 2021)", "key": {"[1]": {"experiment": "Repeated discontinuous oral DEX PK study (another 60 mice)", "type": "in vivo, mouse", "protocol": "1 g/L of tetracycline (Sigma-Aldrich Inc, St. Louis, MO, USA) was added during both phases. Assuming that mice drink 5 mL of water per day, the dose they receive would be 1.6–2 mg/kg/day. […] At the end of in vivo procedures, all plasma samples were transferred from dry ice and stored at –80°C until analysis."}, "[2]": {"experiment": "DEX single oral gavage plasma pharmacokinetics (NLME modeling);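 also: plasma concentration-time data analysed by nonlinear mixed-effects modeling in Monolix with SAEM estimation, models built on apparent clearance, distribution volume and absorption rate constant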", "conditions": "for DV (Dex oral gavage PK raw data): individual mice", "procedure": "Blood was collected via saphenous/retro-orbital vein at time points: 0.25, 0.75, 0.5, 1, 1.5, 2, 4, 8, 16 hours after treatment. Three sets of mice were used for this experiment, where set 1 was sampled at 2,4,8 hr; set 2 at 0.25, 0.75, 1.5 hr; set 3 at 0.5, 1 and 16 hr. Samples were centrifuged at 10,000 rpm for 2 minutes, plasma was removed and stored at -80°C until further analysis.\nBriefly, parameters and the Fisher Information Matrix (FIM) were estimated using the stochastic approximation expectation maximization (SAEM) algorithm, and the final log-likelihood estimated with importance sampling, all using the default Monolix initial settings, except that 1000 iterations were permitted for estimation of FIM using stochastic approximation. A variety of models were fit to the respective compound’s Ct data, parameterized using apparent clearances, volumes of distribution, and absorption rate constant as needed. […] A log-normal inter-individual and inter-occasion parameter distribution was assumed on selected supported parameters, with both on- and off-diagonal elements of parameter covariance matrices tested. Additive and/or proportional error models were tested and implemented as supported. Beal’s M3 method was used to fit any data that were below the LLOQ or above the upper limit of the assay range [20]. […] Additionally, Wald test P values were outputted for each covariate effect by the Monolix software.\nAdditionally, Wald test P values were outputted for each covariate effect by the Monolix software."}}, "note": "Several values for one entry are separate records, joined by “and”; a condition that tells them apart may be missing. Identical values can stand only once.", "data": [{"smiles": "C[C@@H]1C[C@H]2[C@@H]3CCC4=CC(=O)C=C[C@]4(C)[C@@]3(F)[C@@H](O)C[C@]2(C)[C@@]1(O)C(=O)CO", "note": "[DEX, dexamethasone]", "values": [{"measurement": "concentration at 17.5 day", "setting": "[1]; male, C57BL/6, mouse, plasma, oral, 8 mg/L, DEX conc, Average ± S.D. of quantifiable samples, plasma, repeated study, VD3 Deficient, M, Day 17.5, n=5", "result": "16.7 ± 7.19", "unit": "nM"}, {"measurement": "concentration at 3.5 day", "setting": "[1]; male, C57BL/6, mouse, plasma, oral, 8 mg/L, DEX conc, Average ± S.D. of quantifiable samples, plasma, repeated study, VD3 Sufficient, M, Day 3.5, n=5", "result": "30.1 ± 14.4", "unit": "nM"}, {"measurement": "concentration at 17.5 day", "setting": "[1]; male, C57BL/6, mouse, plasma, oral, 8 mg/L, DEX conc, Average ± S.D. of quantifiable samples, plasma, repeated study, VD3 Sufficient, M, Day 17.5, n=5", "result": "25.2 ± 8.2", "unit": "nM"}, {"measurement": "% BLQ", "setting": "[1]; male, VD3 Def, 10.5 Days", "result": 0, "unit": "%"}, {"measurement": "% BLQ", "setting": "[1]; male, VD3 Def, 17.5 Days", "result": 0, "unit": "%"}, {"measurement": "% BLQ", "setting": "[1]; male, VD3 Suf, 10.5 Days", "result": 100, "unit": "%"}, {"measurement": "% BLQ", "setting": "[1]; male, VD3 Suf, 17.5 Days", "result": 0, "unit": "%"}, {"measurement": "DEX conc, Average ± S.D. of quantifiable samples", "setting": "[1]; plasma, repeated study, VD3 Deficient, F, Day 3.5, n=15", "result": 51.832, "unit": "nM"}, {"measurement": "DEX conc, Average ± S.D. of quantifiable samples", "setting": "[1]; plasma, repeated study, VD3 Deficient, F, Day 10.5, n=10", "result": 116.245, "unit": "nM"}, {"measurement": "DEX conc, Average ± S.D. of quantifiable samples", "setting": "[1]; plasma, repeated study, VD3 Deficient, F, Day 17.5, n=5", "result": 105.912, "unit": "nM"}, {"measurement": "DEX conc, Average ± S.D. of quantifiable samples", "setting": "[1]; plasma, repeated study, VD3 Deficient, M, Day 3.5, n=13", "result": 15.9992, "unit": "nM"}, {"measurement": "DEX conc, Average ± S.D. of quantifiable samples", "setting": "[1]; plasma, repeated study, VD3 Deficient, M, Day 10.5, n=10", "result": 48.71, "unit": "nM"}, {"measurement": "DEX conc, Average ± S.D. of quantifiable samples", "setting": "[1]; plasma, repeated study, VD3 Deficient, M, Day 17.5, n=5", "result": 16.66, "unit": "nM"}, {"measurement": "DEX conc, Average ± S.D. of quantifiable samples", "setting": "[1]; plasma, repeated study, VD3 Sufficient, F, Day 3.5, n=5", "result": 47.222, "unit": "nM"}, {"measurement": "DEX conc, Average ± S.D. of quantifiable samples", "setting": "[1]; plasma, repeated study, VD3 Sufficient, F, Day 10.5, n=3", "result": 7.71, "unit": "nM"}, {"measurement": "DEX conc, Average ± S.D. of quantifiable samples", "setting": "[1]; plasma, repeated study, VD3 Sufficient, F, Day 17.5, n=5", "result": 45.604, "unit": "nM"}, {"measurement": "DEX conc, Average ± S.D. of quantifiable samples", "setting": "[1]; plasma, repeated study, VD3 Sufficient, M, Day 3.5, n=5", "result": 30.144, "unit": "nM"}, {"measurement": "DEX conc, Average ± S.D. of quantifiable samples", "setting": "[1]; plasma, repeated study, VD3 Sufficient, M, Day 17.5, n=5", "result": 25.19, "unit": "nM"}, {"measurement": "DEX conc, individual mouse", "setting": "[1]; plasma, repeated study, female, VD3 Suf, 3.5 Days", "result": "BLQ (BLQ = BELOW the LLOQ, lower lmit of quantification = 5 nM dexamethasone)"}, {"measurement": "DEX conc, individual mouse", "setting": "[1]; plasma, repeated study, female, VD3 Suf, 10.5 Days", "result": "BLQ (BLQ = BELOW the LLOQ, lower lmit of quantification = 5 nM dexamethasone)"}, {"measurement": "DEX conc, individual mouse", "setting": "[1]; plasma, repeated study, male, VD3 Def, 3.5 Days", "result": "9.88 nM and 17.04 nM and 5.32 nM and 11.52 nM and 38.23 nM and BLQ (BLQ = BELOW the LLOQ, lower lmit of quantification = 5 nM dexamethasone) and 6.47 nM and 59.55 nM and 8.86 nM and 29.02 nM and 4.39 nM and 6.91 nM"}, {"measurement": "DEX conc, individual mouse", "setting": "[1]; plasma, repeated study, male, VD3 Def, 10.5 Days", "result": "19.46 nM and 37.99 nM and 211.48 nM and 27.59 nM and 28.34 nM and 9.45 nM and 27.41 nM"}, {"measurement": "DEX conc, individual mouse", "setting": "[1]; plasma, repeated study, male, VD3 Def, 17.5 Days", "result": "12.05 nM and 27.36 nM"}, {"measurement": "DEX conc, individual mouse", "setting": "[1]; plasma, repeated study, male, VD3 Suf, 3.5 Days", "result": "BLQ (BLQ = BELOW the LLOQ, lower lmit of quantification = 5 nM dexamethasone)"}, {"measurement": "DEX conc, individual mouse", "setting": "[1]; plasma, repeated study, male, VD3 Suf, 10.5 Days", "result": "BLQ (BLQ = BELOW the LLOQ, lower lmit of quantification = 5 nM dexamethasone)"}, {"measurement": "DEX conc, individual mouse", "setting": "[1]; plasma, repeated study, male, VD3 Suf, 17.5 Days", "result": "22.35 nM and 12.66 nM and 32.4 nM and 32.15 nM and 26.39 nM"}, {"measurement": "% BLQ", "setting": "[1]; share of plasma samples below LLOQ 5 nM, male, VD3 Suf, 3.5 Days", "result": 67, "unit": "%"}, {"measurement": "estimated Cgut (gut concentration)", "setting": "[2]; single oral gavage", "result": 200, "unit": "µM"}, {"measurement": "higher CL/F in males vs females", "setting": "[2]; single oral gavage 2 mg/kg DEX phosphate, regardless of VD3 status", "result": "~ 25%"}, {"measurement": "lower AUC values in males vs females", "setting": "[2]; single oral gavage 2 mg/kg dexamethasone phosphate, 14 weeks", "result": "approximately 25%"}, {"measurement": "apparent oral clearance (CL/F), male vs female", "setting": "[2]; single oral gavage, regardless of VD3 status", "result": 1.26, "unit": "fold"}, {"measurement": "DV (Dex oral gavage PK raw data)", "setting": "[2]; time 0.25, SEX:F, VD3_DEF:0", "result": "907.64 and 982.88"}, {"measurement": "DV (Dex oral gavage PK raw data)", "setting": "[2]; time 0.25, SEX:M, VD3_DEF:0", "result": "359.52 and 381.14 and 918.28 and 295.91"}, {"measurement": "DV (Dex oral gavage PK raw data)", "setting": "[2]; time 0.5, SEX:F, VD3_DEF:0", "result": "300.45 and 875.91 and 827.78 and 1011.08 and 796.28"}, {"measurement": "DV (Dex oral gavage PK raw data)", "setting": "[2]; time 0.5, SEX:M, VD3_DEF:0", "result": "854.61 and 443.3 and 391.17 and 812.36 and 581.49"}, {"measurement": "DV (Dex oral gavage PK raw data)", "setting": "[2]; time 0.75, SEX:F, VD3_DEF:0", "result": "593 and 696.57 and 716.27"}, {"measurement": "DV (Dex oral gavage PK raw data)", "setting": "[2]; time 0.75, SEX:M, VD3_DEF:0", "result": "319 and 407.15 and 712.45 and 358.52"}, {"measurement": "DV (Dex oral gavage PK raw data)", "setting": "[2]; time 1, SEX:F, VD3_DEF:0", "result": "323.98 and 614.7 and 559.39 and 858.7 and 572.77"}, {"measurement": "DV (Dex oral gavage PK raw data)", "setting": "[2]; time 1, SEX:M, VD3_DEF:0", "result": "871.76 and 446.29 and 284.95 and 564.36 and 379.97"}, {"measurement": "DV (Dex oral gavage PK raw data)", "setting": "[2]; time 1.5, SEX:F, VD3_DEF:0", "result": "400.31 and 458.1 and 520.89"}, {"measurement": "DV (Dex oral gavage PK raw data)", "setting": "[2]; time 1.5, SEX:M, VD3_DEF:0", "result": "262.55 and 317.69 and 754.41 and 324.39"}, {"measurement": "DV (Dex oral gavage PK raw data)", "setting": "[2]; time 2, SEX:F, VD3_DEF:0", "result": "620.12 and 492.72 and 552.22 and 715.36"}, {"measurement": "DV (Dex oral gavage PK raw data)", "setting": "[2]; time 2, SEX:M, VD3_DEF:0", "result": "450.54 and 344.89 and 388.67 and 378.66 and 784.19"}, {"measurement": "DV (Dex oral gavage PK raw data)", "setting": "[2]; time 2, SEX:M, VD3_DEF:1", "result": "453.95 and 476.24"}, {"measurement": "DV (Dex oral gavage PK raw data)", "setting": "[2]; time 4, SEX:F, VD3_DEF:0", "result": "375.42 and 312.44 and 291.92 and 312.42 and 297.86"}, {"measurement": "DV (Dex oral gavage PK raw data)", "setting": "[2]; time 4, SEX:M, VD3_DEF:0", "result": "215.15 and 191.38 and 191.07 and 239.97 and 623.74"}, {"measurement": "DV (Dex oral gavage PK raw data)", "setting": "[2]; time 4, SEX:M, VD3_DEF:1", "result": "214.6 and 240.73 and 185.34"}, {"measurement": "DV (Dex oral gavage PK raw data)", "setting": "[2]; time 8, SEX:F, VD3_DEF:0", "result": "121.36 and 89.26 and 221.1 and 152.45 and 67.95"}, {"measurement": "DV (Dex oral gavage PK raw data)", "setting": "[2]; time 8, SEX:M, VD3_DEF:0", "result": "74.87 and 61.36 and 52.11 and 112.04 and 269.34"}, {"measurement": "DV (Dex oral gavage PK raw data)", "setting": "[2]; time 8, SEX:M, VD3_DEF:1", "result": "66.26 and 72.8"}, {"measurement": "DV (Dex oral gavage PK raw data)", "setting": "[2]; time 16, SEX:F, VD3_DEF:0", "result": "29.97 and 65.92 and 14.35 and 7.95 and 53.43"}, {"measurement": "DV (Dex oral gavage PK raw data)", "setting": "[2]; time 16, SEX:M, VD3_DEF:0", "result": "18.43 and 25.62 and 92.79 and 13.68 and 19.85"}]}]}
